Target: T1, farnesoid X receptor (FXR) (Homo sapiens, UniProt Q96RI1)
T1 sequence (Q96RI1 1-486): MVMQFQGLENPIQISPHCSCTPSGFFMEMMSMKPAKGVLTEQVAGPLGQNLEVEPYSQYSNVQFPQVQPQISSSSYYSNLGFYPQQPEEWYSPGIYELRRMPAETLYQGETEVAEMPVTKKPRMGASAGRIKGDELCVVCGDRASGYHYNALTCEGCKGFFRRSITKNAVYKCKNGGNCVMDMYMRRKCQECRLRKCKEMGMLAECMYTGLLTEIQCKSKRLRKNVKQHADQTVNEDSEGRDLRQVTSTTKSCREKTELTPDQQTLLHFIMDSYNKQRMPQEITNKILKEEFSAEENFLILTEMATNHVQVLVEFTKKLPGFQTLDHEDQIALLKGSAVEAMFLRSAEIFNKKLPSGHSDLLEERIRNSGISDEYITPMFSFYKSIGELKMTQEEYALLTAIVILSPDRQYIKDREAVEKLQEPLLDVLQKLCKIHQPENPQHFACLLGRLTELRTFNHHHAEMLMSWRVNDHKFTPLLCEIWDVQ
Experiment: Recruitment Coactivator Assay (AlphaScreen) for FXR activation
Type: biochemical
Details: read-out: activating activity (EC50) for FXR
Procedure: The farnesoid X receptor (FXR) activation of the compounds of the present invention is determined by Recruitment Coactivator Assay, i.e. AlphaScreen. Specific in vitro pharmacodynamic evaluation experimental program has referred to the literature J Pharmacol Exp Ther 350:56-68, July 2014.

Q: “3α, 7[…]-Dihydroxy-6α-(Ethyl-d4)-5β-Cholan-24-Acid [Example 7]” was tested. Which EC50 did it give?
A: < 200 nM

— patent US10544185B2 (Suzhou Zelgen Biopharmaceuticals Co., Ltd., priority 2015, dated 2020)
